We go through 24 compounds from the NIST ThermoML archive (doi:10.1016/j.jct.2017.11.017).

This data set in a line: activity coefficient (dimensionless); of the first substance listed, at infinite dilution; xn = mol fraction of the nth substance listed. To be noted: 101.33 kPa, Liquid, Chromatography, x1 = 0.

The structures appear in SMILES notation. Numbers after ± are expanded uncertainties.

Take `CCCCO` [butan-1-ol] + C[N+]1(CCCO)CCOCC1.N#C[N-]C#N: the activity coefficient by setting is: (318.15 K) 4.66 ± 0.32; (328.15 K) 4.5 ± 0.31; (338.15 K) 4.39 ± 0.3; (348.15 K) 4.26 ± 0.29; (358.15 K) 4.17 ± 0.28; (368.15 K) 4.08 ± 0.28.
On to `CCC(=O)OC` [methyl propanoate] + C[n+]1ccn(CCCO)c1.N#CN=C=[N-], for which the activity coefficient (318.15 K) amounted to 5.29 ± 0.36; the activity coefficient (328.15 K) was 5.48 ± 0.37; the activity coefficient (338.15 K) was 5.73 ± 0.39; the activity coefficient (348.15 K) was determined as 5.92 ± 0.4; the activity coefficient (358.15 K) was 6.14 ± 0.42; the activity coefficient (368.15 K) is 6.34 ± 0.43.
Turning to `CCCCCCCCCC` [decane] + C[N+]1(CCCO)CCOCC1.N#C[N-]C#N, the activity coefficient runs as follows: (308.15 K) 2530 ± 180; (318.15 K) 2220 ± 150; (328.15 K) 1980 ± 140; (338.15 K) 1770 ± 120; (348.15 K) 1590 ± 110; (358.15 K) 1430 ± 99. The activity coefficient (368.15 K) turned out to be 1310 ± 90.
Consider `COC(C)(C)C` [2-methoxy-2-methylpropane] + C[n+]1ccn(CCCO)c1.N#CN=C=[N-], for which the activity coefficient amounted to 22.8 ± 1.6 (318.15 K); 23.2 ± 1.6 (328.15 K); 23.5 ± 1.6 (338.15 K); 24 ± 1.6 (348.15 K); 24.3 ± 1.7 (358.15 K); 24.7 ± 1.7 (368.15 K).
For the compound `C#CCCCCCC` [1-octyne] + C[n+]1ccn(CCCO)c1.N#CN=C=[N-], the activity coefficient was determined as 60.1 ± 4.1 (298.15 K); 60.2 ± 4.1 (308.15 K); 59.8 ± 4.1 (318.15 K); 59.6 ± 4.1 (328.15 K); 59.6 ± 4.1 (338.15 K); 59.4 ± 4.1 (348.15 K). For the same compound, the activity coefficient (358.15 K) is 59.6 ± 4.1.
With `CCc1ccccc1` [ethylbenzene] + C[n+]1ccn(CCCO)c1.N#CN=C=[N-], the activity coefficient amounted to 14.6 ± 1 (318.15 K); 14.9 ± 1 (328.15 K); 15.3 ± 1 (338.15 K); 15.5 ± 1.1 (348.15 K); 15.9 ± 1.1 (358.15 K); 16.1 ± 1.1 (368.15 K).
`CCCCCCCC` [octane] + C[N+]1(CCCO)CCOCC1.N#C[N-]C#N: the activity coefficient runs as follows: (298.15 K) 2070 ± 140; (308.15 K) 1730 ± 120; (318.15 K) 1460 ± 100; (328.15 K) 1260 ± 87; (338.15 K) 1090 ± 75.
For `C#CCCC` [1-pentyne] + C[n+]1ccn(CCCO)c1.N#CN=C=[N-], the activity coefficient reads like this: (298.15 K) 11.3 ± 0.8; (308.15 K) 11.5 ± 0.8; (318.15 K) 11.7 ± 0.8; (328.15 K) 11.8 ± 0.8; (338.15 K) 12 ± 0.8; (348.15 K) 12.1 ± 0.8. The activity coefficient (358.15 K) amounted to 12.3 ± 0.8.
For the compound `c1ccccc1` [benzene] + C[n+]1ccn(CCCO)c1.N#CN=C=[N-], the activity coefficient came to 4.41 ± 0.3 (318.15 K); 4.56 ± 0.31 (328.15 K); 4.74 ± 0.32 (338.15 K); 4.92 ± 0.34 (348.15 K); 5.08 ± 0.35 (358.15 K); 5.22 ± 0.36 (368.15 K).
With `CC(C)CC(C)(C)C` [2,2,4-trimethylpentane] + C[n+]1ccn(CCCO)c1.N#CN=C=[N-], the activity coefficient was determined as 767 ± 53 (298.15 K), 662 ± 46 (308.15 K), 579 ± 40 (318.15 K) and 509 ± 35 (328.15 K).
On to `C=CCCCCCC` [oct-1-ene] + C[n+]1ccn(CCCO)c1.N#CN=C=[N-], for which the activity coefficient is, setting by setting: (298.15 K) 358 ± 25; (308.15 K) 331 ± 23; (318.15 K) 305 ± 21; (328.15 K) 282 ± 19; (338.15 K) 263 ± 18; (348.15 K) 245 ± 17. The activity coefficient (358.15 K) was found to be 234 ± 16.
In the case of `CCCc1ccccc1` [propylbenzene] + C[n+]1ccn(CCCO)c1.N#CN=C=[N-], the activity coefficient came to 26.8 ± 1.8 (318.15 K); 27.3 ± 1.9 (328.15 K); 27.6 ± 1.9 (338.15 K); 27.9 ± 1.9 (348.15 K); 28.2 ± 1.9 (358.15 K); 28.4 ± 1.9 (368.15 K).
Turning to `CC#N` [acetonitrile] + C[n+]1ccn(CCCO)c1.N#CN=C=[N-], the activity coefficient stood at 1.19 ± 0.08 (318.15 K); 1.23 ± 0.08 (328.15 K); 1.29 ± 0.08 (338.15 K); 1.33 ± 0.09 (348.15 K); 1.37 ± 0.09 (358.15 K); 1.41 ± 0.09 (368.15 K).
As to `CC(C)OC(C)C` [diisopropyl ether] + C[n+]1ccn(CCCO)c1.N#CN=C=[N-], the activity coefficient runs as follows: (318.15 K) 96 ± 6.6; (328.15 K) 92.7 ± 6.4; (338.15 K) 90.6 ± 6.2; (348.15 K) 88 ± 6; (358.15 K) 86.5 ± 5.9; (368.15 K) 84.3 ± 5.8.
For `CCC(=O)CC` [pentan-3-one] + C[n+]1ccn(CCCO)c1.N#CN=C=[N-], the activity coefficient reads like this: (318.15 K) 5.1 ± 0.35; (328.15 K) 5.29 ± 0.36; (338.15 K) 5.54 ± 0.38; (348.15 K) 5.71 ± 0.39; (358.15 K) 5.95 ± 0.41; (368.15 K) 6.11 ± 0.42.
As to `C#CCCC` [1-pentyne] + C[N+]1(CCCO)CCOCC1.N#C[N-]C#N, the activity coefficient (308.15 K) amounted to 24.2 ± 1.7; the activity coefficient (318.15 K) was 23.6 ± 1.6; the activity coefficient (328.15 K) turned out to be 23.1 ± 1.6; the activity coefficient (338.15 K) worked out at 22.7 ± 1.6; the activity coefficient (348.15 K) turned out to be 22.4 ± 1.5; the activity coefficient (358.15 K) came out at 22 ± 1.5. In addition, under “368.15 K”, the activity coefficient turned out to be 21.7 ± 1.5.
With `Cc1cccc(C)c1` [1,3-dimethylbenzene] + C[n+]1ccn(CCCO)c1.N#CN=C=[N-], the activity coefficient came out at 14.1 ± 1 (318.15 K); 14.5 ± 1 (328.15 K); 14.9 ± 1 (338.15 K); 15.2 ± 1 (348.15 K); 15.6 ± 1.1 (358.15 K); 16 ± 1.1 (368.15 K).
In the case of `O` [water] + C[N+]1(CCCO)CCOCC1.N#C[N-]C#N, the activity coefficient is 0.364 ± 0.033 (318.15 K); 0.373 ± 0.033 (328.15 K); 0.384 ± 0.033 (338.15 K); 0.395 ± 0.034 (348.15 K); 0.404 ± 0.034 (358.15 K); 0.414 ± 0.034 (368.15 K).
With `CCCCCCC` [heptane] + C[n+]1ccn(CCCO)c1.N#CN=C=[N-], the activity coefficient amounted to 562 ± 39 (298.15 K); 504 ± 35 (308.15 K); 447 ± 31 (318.15 K); 402 ± 28 (328.15 K); 366 ± 25 (338.15 K); 334 ± 23 (348.15 K). In addition, where the note is “358.15 K”, the activity coefficient came to 306 ± 21.
As to `CCOC(C)(C)C` [2-ethoxy-2-methylpropane] + C[N+]1(CCCO)CCOCC1.N#C[N-]C#N, the activity coefficient (298.15 K) was 339 ± 23, the activity coefficient (308.15 K) was determined as 275 ± 19, the activity coefficient (318.15 K) was 227 ± 16 and the activity coefficient (328.15 K) was found to be 191 ± 13.
`CCC(C)(C)OC` [2-methoxy-2-methylbutane] + C[n+]1ccn(CCCO)c1.N#CN=C=[N-]: the activity coefficient runs as follows: (318.15 K) 36.8 ± 2.5; (328.15 K) 37 ± 2.5; (338.15 K) 37.2 ± 2.5; (348.15 K) 37.5 ± 2.6; (358.15 K) 37.7 ± 2.6; (368.15 K) 38.1 ± 2.6.
Consider `CCCc1ccccc1` [propylbenzene] + C[N+]1(CCCO)CCOCC1.N#C[N-]C#N, for which the activity coefficient reads like this: (318.15 K) 54.1 ± 3.7; (328.15 K) 53.2 ± 3.6; (338.15 K) 52.4 ± 3.6; (348.15 K) 51.5 ± 3.5; (358.15 K) 51 ± 3.5; (368.15 K) 50.2 ± 3.4.
As to `CCCC=O` [butanal] + C[N+]1(CCCO)CCOCC1.N#C[N-]C#N, the activity coefficient (318.15 K) amounted to 4.26 ± 0.29; the activity coefficient (328.15 K) came out at 4.49 ± 0.31; the activity coefficient (338.15 K) was 4.74 ± 0.32; the activity coefficient (348.15 K) came to 4.97 ± 0.34; the activity coefficient (358.15 K) was determined as 5.19 ± 0.35; the activity coefficient (368.15 K) came to 5.38 ± 0.37.
`c1ccsc1` [thiophene] + C[N+]1(CCCO)CCOCC1.N#C[N-]C#N: the activity coefficient is, setting by setting: (318.15 K) 3.23 ± 0.22; (328.15 K) 3.37 ± 0.23; (338.15 K) 3.51 ± 0.24; (348.15 K) 3.64 ± 0.25; (358.15 K) 3.77 ± 0.26; (368.15 K) 3.9 ± 0.27.
